Experimental data published in patent US9469650B2, “Melampomagnolide B derivatives” (BOARD OF TRUSTEES OF THE UNIVERSITY OF ARKANSAS, priority 2013, dated 2016).

Columns and labels:
HS 578T = assay: panel of 60 human tumor cell lines, growth inhibition (Breast Cancer); conditions: for Percent Growth: HS 57BT
BT-549 = assay: as above
IGROV1 = assay: panel of 60 human tumor cell lines, growth inhibition (Ovarian Cancer); conditions: IGROVI
SK-OV-3 = assay: as above; conditions: SK-OV-3
DU-145 = assay: panel of 60 human tumor cell lines, growth inhibition (Prostate Cancer); conditions: DU-145
HOP-62 = assay: panel of 60 human tumor cell lines, growth inhibition (Non-Small Cell Lung Cancer); conditions: HOP-62
NCI-H226 = assay: as above; conditions: NCI-H226
NCI-H23 = assay: as above; conditions: NCI-H23
NCI-H460 = assay: as above; conditions: NCI-H460
NCI-H522 = assay: as above; conditions: NCI-H522
[1] = 81-549, Log10 Concentration −4.0
[2] = 81-549, Log10 Concentration −5.0
[3] = 81-549, Log10 Concentration −6.0
[4] = 81-549, Log10 Concentration −7.0
[5] = 81-549, Log10 Concentration −8.0

## C=C1C(=O)O[C@H]2[C@H]1CC/C(COC(=O)N1CCN(C)CC1)=C\CC[C@@]1(C)O[C@@H]21 [JVM 2-44]
HS 578T; Log10 Concentration −7.0
  Percent Growth: 86%
  Mean Optical Densities: 2.057
HS 578T; Log10 Concentration −8.0
  Percent Growth: 90%
  Mean Optical Densities: 2.099
HS 578T; Log10 Concentration −4.0
  Mean Optical Densities: 1.235
HS 578T; Log10 Concentration −5.0
  Mean Optical Densities: 1.827
HS 578T; Log10 Concentration −6.0
  Mean Optical Densities: 2.096
BT-549; 81-549
  TGI: 1.81E−5
BT-549; [1]
  Mean Optical Densities: 0.180
  Percent Growth: −86%
BT-549; [2]
  Mean Optical Densities: 1.522
  Percent Growth: 30%
BT-549; [3]
  Mean Optical Densities: 1.985
  Percent Growth: 84%
BT-549; [4]
  Mean Optical Densities: 1.951
  Percent Growth: 80%
BT-549; [5]
  Mean Optical Densities: 2.028
  Percent Growth: 89%
IGROV1
  GI50: 11.1 µM
  TGI: 2.99E−5
IGROV1; Log10 Concentration −4.0
  Mean Optical Densities: 0.249
  Percent Growth: −65%
IGROV1; Log10 Concentration −5.0
  Mean Optical Densities: 1.363
  Percent Growth: 59%
IGROV1; Log10 Concentration −6.0
  Mean Optical Densities: 1.902
  Percent Growth: 107%
IGROV1; Log10 Concentration −7.0
  Mean Optical Densities: 1.888
  Percent Growth: 106%
IGROV1; Log10 Concentration −8.0
  Mean Optical Densities: 1.866
  Percent Growth: 104%
SK-OV-3
  GI50: 31.8 µM
  TGI: >1.00E−4
SK-OV-3; Log10 Concentration −4.0
  Mean Optical Densities: 1.032
  Percent Growth: 4%
SK-OV-3; Log10 Concentration −5.0
  Mean Optical Densities: 1.852
  Percent Growth: 96%
SK-OV-3; Log10 Concentration −6.0
  Mean Optical Densities: 1.892
  Percent Growth: 101%
SK-OV-3; Log10 Concentration −7.0
  Mean Optical Densities: 1.808
  Percent Growth: 91%
SK-OV-3; Log10 Concentration −8.0
  Mean Optical Densities: 1.885
  Percent Growth: 100%
DU-145
  GI50: 3.98 µM
  TGI: 1.44E−5
DU-145; Log10 Concentration −4.0
  Mean Optical Densities: 0.835
  Percent Growth: −93%
DU-145; Log10 Concentration −5.0
  Mean Optical Densities: 0.750
  Percent Growth: 17%
DU-145; Log10 Concentration −6.0
  Mean Optical Densities: 1.844
  Percent Growth: 99%
DU-145; Log10 Concentration −7.0
  Mean Optical Densities: 1.845
  Percent Growth: 99%
DU-145; Log10 Concentration −8.0
  Mean Optical Densities: 1.839
  Percent Growth: 99%
HOP-62
  GI50: 27.3 µM
  TGI: >1.00E−4
HOP-62; Log10 Concentration −4.0
  Mean Optical Densities: 0.936
  Percent Growth: 7%
HOP-62; Log10 Concentration −5.0
  Mean Optical Densities: 2.007
  Percent Growth: 83%
HOP-62; Log10 Concentration −6.0
  Mean Optical Densities: 2.174
  Percent Growth: 95%
HOP-62; Log10 Concentration −7.0
  Mean Optical Densities: 2.046
  Percent Growth: 86%
HOP-62; Log10 Concentration −8.0
  Mean Optical Densities: 2.193
  Percent Growth: 96%
NCI-H226
  GI50: 12.4 µM
  TGI: 3.73E−5
NCI-H226; Log10 Concentration −4.0
  Mean Optical Densities: 0.601
  Percent Growth: −45%
NCI-H226; Log10 Concentration −5.0
  Mean Optical Densities: 2.002
  Percent Growth: 60%
NCI-H226; Log10 Concentration −6.0
  Mean Optical Densities: 2.540
  Percent Growth: 95%
NCI-H226; Log10 Concentration −7.0
  Mean Optical Densities: 2.533
  Percent Growth: 94%
NCI-H226; Log10 Concentration −8.0
  Mean Optical Densities: 2.561
  Percent Growth: 96%
NCI-H23
  GI50: 11.8 µM
  TGI: 3.12E−5
NCI-H23; Log10 Concentration −4.0
  Mean Optical Densities: 0.244
  Percent Growth: −60%
NCI-H23; Log10 Concentration −5.0
  Mean Optical Densities: 1.347
  Percent Growth: 58%
NCI-H23; Log10 Concentration −6.0
  Mean Optical Densities: 1.872
  Percent Growth: 100%
NCI-H23; Log10 Concentration −7.0
  Mean Optical Densities: 1.838
  Percent Growth: 97%
NCI-H23; Log10 Concentration −8.0
  Mean Optical Densities: 1.849
  Percent Growth: 98%
NCI-H460
  GI50: 20.3 µM
  TGI: 5.67E−5
NCI-H460; Log10 Concentration −4.0
  Mean Optical Densities: 0.202
  Percent Growth: −28%
NCI-H460; Log10 Concentration −5.0
  Mean Optical Densities: 2.401
  Percent Growth: 84%
NCI-H460; Log10 Concentration −6.0
  Mean Optical Densities: 2.741
  Percent Growth: 98%
NCI-H460; Log10 Concentration −7.0
  Mean Optical Densities: 2.825
  Percent Growth: 101%
NCI-H460; Log10 Concentration −8.0
  Mean Optical Densities: 2.830
  Percent Growth: 101%
NCI-H522
  GI50: 1540 nM
  TGI: 3.55E−5
NCI-H522; Log10 Concentration −4.0
  Mean Optical Densities: 0.194
  Percent Growth: −78%
NCI-H522; Log10 Concentration −5.0
  Mean Optical Densities: 0.338
  Percent Growth: −62%
NCI-H522; Log10 Concentration −6.0
  Mean Optical Densities: 1.747
  Percent Growth: 76%
NCI-H522; Log10 Concentration −7.0
  Mean Optical Densities: 1.925
  Percent Growth: 92%
NCI-H522; Log10 Concentration −8.0
  Mean Optical Densities: 1.900
  Percent Growth: 89%
